Results as given in patent US12583825B2, “Benzo[h]quinazolin-4-amine and thieno[3,2-h]quinazolin-4-amine derivatives for the treatment of cancer” (Redona Therapeutics, Inc., priority 2020, dated 2026).

Experiments:
MDA-MB-231 cells = test: MDA-MB-231 proliferation assay; type: cell-based; settings: Homo sapiens, 72 hours, YO-PRO-1 readout
Summary of the method: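 Cells seeded at 750/well in DMEM with 10% FBS, treated 72 h at 37 °C, 0.5% DMSO final. Cell number read by YO-PRO-1 fluorescence (485/530 nm), normalised to DMSO (100%) and time-of-addition cells (0%); 4-parameter logistic fit with maximum fixed at 100%.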

recombinant human CLK3 = target: T1, recombinant human CLK3 (Homo sapiens, UniProt P49761); test: CLK3 kinase assay (LANCE Ultra); type: biochemical; settings: 0.5 nM CLK3, 300 μM ATP, 3 hours at 30° C.
T1 construct: purchased Thermo Fisher Scientific PV3826
T1 sequence (P49761 whole entry): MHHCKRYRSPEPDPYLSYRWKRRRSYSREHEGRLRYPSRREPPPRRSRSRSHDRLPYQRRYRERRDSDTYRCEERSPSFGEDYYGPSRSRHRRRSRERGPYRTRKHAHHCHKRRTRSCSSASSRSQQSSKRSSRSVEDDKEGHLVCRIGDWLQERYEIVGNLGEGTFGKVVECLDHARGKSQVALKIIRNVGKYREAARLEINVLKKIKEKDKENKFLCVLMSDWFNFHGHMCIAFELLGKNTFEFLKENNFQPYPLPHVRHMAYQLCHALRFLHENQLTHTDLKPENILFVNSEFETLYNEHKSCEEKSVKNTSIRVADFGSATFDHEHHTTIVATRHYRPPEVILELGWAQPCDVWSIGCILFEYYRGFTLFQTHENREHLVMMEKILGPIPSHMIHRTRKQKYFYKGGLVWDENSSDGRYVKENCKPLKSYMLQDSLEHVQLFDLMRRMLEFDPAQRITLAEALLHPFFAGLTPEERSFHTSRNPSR
Summary of the method: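 TR-FRET (LANCE Ultra) read-out of phospho-CREBtide after a 3 h, 30 °C reaction containing 300 μM ATP, 50 nM ULight-CREBtide and 0.5 nM recombinant human CLK3, compounds in 1% DMSO.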

[1] = test system: phospho-SRSF6 levels in MDA-MB-468 cells; test: Inhibition of phospho-SRSF6 levels in MDA-MB-468 cells (Western blot); type: cell-based; settings: Homo sapiens, 100 nM, 2 hours, normalized by GAPDH, read-out: % Intensity of p-SRSF6 signal at 100 nM compared to DMSO control
Description: FIG. 1: FIG. 1 provides a representative Western blot showing reduction of phosphorylated-SRSF6 (P-SRSF6) in MDA-MB 468 cells by compounds of the invention. GAPDH was probed for by Western blotting to control for equal protein loading and for normalization of samples. The numbers below the blots show percent intensity of P-SRSF6 signal at 100 nM compared to DMSO control.
Assessment of Inhibition of Phospho-SRSF6 Levels in MDA-MB-468 Cells
MDA-MB-468 cells (ATCC, HTB-132) were cultured in DMEM (BioConcept cat. no. 1-26F03) supplemented with 10% FBS (Sigma cat. no. F9665), 1% Na-pyruvate (Sigma cat. no. S8636), 1% Penicillin-Streptomycin (BioConcept cat. no. 4-01F00-H). When cells reached a density of 70% in 6-well plates (TPP cat. no. 92006), they were treated either with the test compound vehicle DMSO, or with experimental compounds at a final concentration of 100 nM for 2 hours. Thereafter, the culture medium was removed and cells were collected by scraping in Lysis Buffer (20 mM Tris HCl pH7.5, 150 mM NaCl, 1 mM EGTA, 1 mM EDTA, 1% Triton and 1% NP-40) containing protease and phosphatase inhibitors (Halt™ Protease&Phosphatase inhibitor cocktail 100× ThermoScientific cat. no. 1861281) and 1 mM PMSF (Fluka cat. no. 93482). Cleared lysates were stored in Eppendorf tubes at −80° C. until use, and protein concentration in lysates was determined using Pierce 660 nm Protein Assay Reagent (ThermoScientific cat. no. 22660). 20 μg proteins were diluted in 4× Laemmli buffer (Biorad cat. no. 161-0747) containing 10% beta-mercaptoethanol, separated by SDS-PAGE using 10% gels, and then transferred to PVDF membranes (Trans Blot Turbo Transfer Pack BioRad cat. no. 1704156) by Trans-Blot® Turbo™ System semidry blotting methodology (BioRad). Primary antibodies were incubated in TBS-0.1% Tween-20 buffer containing 3% BSA Bovine Albumin Fr.V (Millipore cat. no. 81-053-3) overnight at 4° C. The following primary antibodies were used: Mouse anti-phosphoepitope SR proteins clone 1H4 (Millipore cat. no. MABE50) diluted 1:5000, and rabbit anti-GAPDH clone 14C10 (Cell Signaling cat. no. 2118S) to control for equal protein loading, diluted 1:2000. HRP-conjugated secondary antibodies were incubated one hour at room temperature diluted 1:5000 in TBS-0.1% Tween-20 buffer containing 5% nonfat-dried bovine milk (Sigma cat. no. M7409). The following secondary antibodies were used: Goat anti-mouse-HRP (Jackson cat. no. 115-035-146) and goat anti-rabbit-HRP (Jackson cat. no. 111-035-144). Membranes were incubated with ECL Prime Western Blot Detection Reagent (Amersham cat. no. RPN2236) to detect specific signals using Fusion SOLO S device (Vilber Lourmat). Pixel intensity of the phopsho-SRSF6 (MW 55 kDa in reference to markers) and GAPDH (MW 37 kDa) signals in the Western blots were determined using Evolution-Capt image analysis software (v17.01, Vilber Lourmat). DMSO control was used to set the phospho-SRSF6 signal at baseline, phospho-SRSF6 signals for each sample were normalized by the respective GAPDH signals and percent intensity of P-SRSF6 signal at 100 nM compound compared to DMSO control was calculated (see FIG. 1).

Row | Compound | GI50 (MDA-MB-231 cells) | IC50 (recombinant human CLK3) | activity at 0.1 µM [1]
1 | CO/N=C1\c2cc(O[C@H]3CC[C@H](N)CC3)ccc2-c2ncnc(N)c2C1(C)C [Example 1, (6Z)-8-(trans-4-aminocyclohexoxy)-6-methoxyimino-5,5-dimethyl-benzo[h]quinazolin-4-amine] | 407 nM | 9.1 nM | 19%
2 | C=C(c1ccc2c(c1)/C(=N\OC)C(C)(C)c1c(N)ncnc1-2)[C@H]1CC[C@H](N)CC1 [Example 4, (6Z)-8-[1-(trans-4-aminocyclohexyl)vinyl]-6-methoxyimino-5,5-dimethyl-benzo[h]quinazolin-4-amine] | 271 nM | 2.1 nM | 32%
3 | COc1ccc2c(c1)/C(=N\OCCCC#N)C(C)(C)c1c(N)ncnc1-2 [Example 6, 4-[(Z)-(4-amino-8-methoxy-5,5-dimethyl-benzo[h]quinazolin-6-ylidene)amino]oxybutanenitrile] | > 2000 nM | 32.1 nM | 41%
4 | COc1ccc2c(c1)/C(=N\OC[C@@H]1CNC(=O)O1)C(C)(C)c1c(N)ncnc1-2 [Example 13, (5S)-5-[[(Z)-(4-amino-8-methoxy-5,5-dimethyl-benzo[h]quinazolin-6-ylidene)amino]oxymethyl]oxazolidin-2-one] | 1200 nM | 4.3 nM | 28%
5 | CC1(C)/C(=N/OCCO)c2cc(O[C@H]3CC[C@H](N)CC3)ccc2-c2ncnc(N)c21 [Example 19, 2-[(Z)-[4-amino-8-(trans-4-aminocyclohexoxy)-5,5-dimethyl-benzo[h]quinazolin-6-ylidene]amino]oxyethanol] | 445 nM | 20.2 nM | 25%
6 | C#CCO/N=C1\c2cc(O[C@H]3CC[C@H](N)CC3)ccc2-c2ncnc(N)c2C1(C)C [Example 21, (6Z)-8-(trans-4-aminocyclohexoxy)-5,5-dimethyl-6-prop-2-ynoxyimino-benzo[h]quinazolin-4-amine] | 569 nM | 27.2 nM | 12%
7 | CC1(C)/C(=N/OCCCC#N)c2cc(O[C@H]3CC[C@H](N)CC3)ccc2-c2ncnc(N)c21 [Example 27, 4-[(Z)-[4-amino-8-(trans-4-aminocyclohexoxy)-5,5-dimethyl-benzo[h]quinazolin-6-ylidene]amino]oxybutanenitrile] | 269 nM | 16.1 nM | 26%
8 | CC1(C)/C(=N/OC[C@@H]2CNC(=O)O2)c2cc(O[C@H]3CC[C@H](N)CC3)ccc2-c2ncnc(N)c21 [Example 38, (5S)-5-[[(Z)-[4-amino-8-(trans-4-aminocyclohexoxy)-5,5-dimethyl-benzo[h]quinazolin-6-ylidene]amino]oxymethyl]oxazolidin-2-one] | > 2000 nM | 4.16 nM | 48%
9 | CO/N=C1\c2cc(OC)ccc2-c2ncnc(N)c2C1(C)C [Example 40, (6Z)-8-methoxy-6-methoxyimino-5,5-dimethyl-benzo[h]quinazolin-4-amine] | > 2000 nM | 21.7 nM | 45%
10 | CN1C[C@@H](CO/N=C2\c3cc(O[C@H]4CC[C@@H](N)CC4)ccc3-c3ncnc(N)c3C2(C)C)OC1=O [Example 88, (5S)-5-[[(Z)-[4-amino-8-(cis-4-aminocyclohexoxy)-5,5-dimethyl-benzo[h]quinazolin-6-ylidene]amino]oxymethyl]-3-methyl-oxazolidin-2-one] |  | 8.8 nM | 21%
11 | CCOCCO/N=C1\c2cc(O[C@H]3CC[C@@H](N)CC3)ccc2-c2ncnc(N)c2C1(C)C [Example 109, (6Z)-8-(cis-4-aminocyclohexoxy)-6-(2-ethoxyethoxyimino)-5,5-dimethyl-benzo[h]quinazoline-4-amine] | 156 nM |  | 21%
12 | CC(C)(C#N)CCO/N=C1\c2cc(O[C@H]3CC[C@@H](N)CC3)ccc2-c2ncnc(N)c2C1(C)C [Example 111, 4-[(Z)-[4-amino-8-(cis-4-aminocyclohexoxy)-5,5-dimethyl-benzo[h]quinazolin-6-ylidene]amino]oxy-2,2-dimethyl-butanenitrile] | 106 nM |  | 16%
